Active and inactive are the calls of the source. The rule behind the calls is not given here.
Tested on: GENE-TOX genotoxicity assays, various organisms and cells
Test: GENE-TOX mutagenicity studies
Details: for call: Assay Type: In vivo carcinogenicity studies
[1] = Species/Cell Type: Nonhuman, Assay Code: CCG+, Evaluation Type: Evaluation A (Pre-1980)
[2] = Species/Cell Type: Salmonella typhimurium (one or more of the five standard strains: TA98, TA100, TA1535, TA1537, and TA1538), Assay Type: Histidine reverse gene mutation, Ames assay, Assay Code: SALT, Evaluation Type: Evaluation A (Pre-1980)
[3] = Species/Cell Type: Vicia faba, Assay Type: Chromosome aberrations, Assay Code: VIC+, Evaluation Type: Evaluation A (Pre-1980)
[4] = Species/Cell Type: Chinese hamster lung (V79) cells, Assay Type: Forward gene mutation at the HPRT or ouabain locus, Assay Code: V79+, Evaluation Type: Evaluation A (Pre-1980)

## CCC(C)c1ccccc1OC(=O)NC (stereo unspecified)
Species/Cell Type: Bacillus subtilis (H17 vs M45T), Assay Type: Rec-assay, spot test, DNA effects (bacterial DNA repair), Assay Code: REX-, Evaluation Type: Evaluation A (Pre-1980)
  mutagenic call: inactive; negative
Species/Cell Type: Escherichia coli WP2, Assay Type: Tryptophan reverse gene mutation, Assay Code: WP2-, Evaluation Type: Evaluation A (Pre-1980)
  mutagenic call: inactive; negative

## Nc1ccc(Sc2ccc(N)cc2)cc1
[1]
  call: active; positive

## CON(C)C(=O)Nc1ccc(Cl)c(Cl)c1
Species/Cell Type: Hordeum vulgare (barley), Assay Type: Chromosome aberrations, Assay Code: HOC+, Evaluation Type: Evaluation A (Pre-1980)
  mutagenic call: active; positive
[2]
  mutagenic call: no conclusion
[3]
  mutagenic call: active; positive

## O=c1[nH]cc(I)c(=O)[nH]1
[3]
  mutagenic call: active; positive

## COc1ccc([C@@H]2CC(=O)c3c(O)cc(O[C@@H]4O[C@H](CO)[C@@H](O)[C@H](O)[C@H]4O[C@@H]4O[C@@H](C)[C@H](O)[C@@H](O)[C@H]4O)cc3O2)cc1O
Species/Cell Type: Salmonella typhimurium, Assay Type: Forward and reverse gene mutation, body fluid assay, Assay Code: BFU-, Evaluation Type: Evaluation A (Pre-1980)
  mutagenic call: inactive; negative

## C=CCOC(=O)CC(C)C
[1]
  call: active; positive

## Cc1ccc([N+](=O)[O-])o1
Species/Cell Type: Bacillus subtilis (H17 vs M45T), Assay Type: Rec-assay, spot test, DNA effects (bacterial DNA repair), Assay Code: REX+, Evaluation Type: Evaluation A (Pre-1980)
  mutagenic call: active; positive
Species/Cell Type: Syrian hamster embryo (SHE) cells, Assay Type: Cell transformation, clonal assay, Assay Code: CTC+, Evaluation Type: Evaluation A (Pre-1980)
  mutagenic call: active; positive

## Nc1nc(N)c2nc(CNc3ccc(C(=O)N[C@@H](CCC(=O)O)C(=O)O)cc3)cnc2n1
Species/Cell Type: Mammalian polychromatic erythrocytes, Assay Type: Micronucleus test, chromosome aberrations, Assay Code: MNT+, Evaluation Type: Evaluation A (Pre-1980)
  mutagenic call: active; positive
Species/Cell Type: Mouse, Sex: Male, Assay Type: Sperm morphology, Assay Code: SPI+, Evaluation Type: Evaluation A (Pre-1980)
  mutagenic call: active; positive
Species/Cell Type: Neurospora crassa, Assay Type: Aneuploidy, chromosome aberrations, Assay Code: NEN-, Evaluation Type: Evaluation A (Pre-1980)
  mutagenic call: inactive; negative
Species/Cell Type: Saccharomyces cerevisiae, Assay Type: Mitotic recombination or gene conversion, Assay Code: YEH+, Evaluation Type: Evaluation A (Pre-1980)
  mutagenic call: active; positive

## O=C[C@H](NC(=O)N(CCCl)N=O)[C@@H](O)[C@H](O)[C@H](O)CO
[4]
  mutagenic call: active; positive
Species/Cell Type: Drosophila melanogaster, Assay Type: Sex-linked recessive lethal gene mutation, Assay Code: SRL+, Evaluation Type: Evaluation A (Pre-1980)
  mutagenic call: active; positive
Species/Cell Type: Nonhuman, Assay Code: CCG+L, Evaluation Type: Evaluation A (Pre-1980)
  call: active; positive
Species/Cell Type: Nonhuman, Assay Type: Sister-chromatid exchange (SCE) in vitro, Assay Code: SC2+D, Dose Response: With dose response, Evaluation Type: Evaluation B (Post-1980)
  mutagenic call: active; positive
Species/Cell Type: Saccharomyces cerevisiae, Assay Type: Mitotic recombination or gene conversion, Assay Code: YEC+, Evaluation Type: Evaluation A (Pre-1980)
  mutagenic call: active; positive

## CCCCCCCCCCCCCC(=O)ON(C(=O)CCCCCCCCCCCCC)c1ccc2c(c1)Cc1ccccc1-2
Species/Cell Type: Human diploid fibroblasts, Assay Type: Unscheduled DNA synthesis (UDS) in vitro, DNA effects, Assay Code: UDH+, Evaluation Type: Evaluation A (Pre-1980)
  mutagenic call: active; positive
[2]
  mutagenic call: no conclusion

## Cc1ccc(O)c(C)c1
Species/Cell Type: Human lymphocytes, Assay Type: Sister-chromatid exchange (SCE) in vitro, Assay Code: SCLT, Evaluation Type: Evaluation B (Post-1980)
  mutagenic call: no conclusion

## CC(CN(CC(=O)O)CC(=O)O)N(CC(=O)O)CC(=O)O (stereo unspecified)
[4]
  mutagenic call: active; positive

## CN(C)CC/C=C1/c2ccccc2Sc2ccc(Cl)cc21
Species/Cell Type: Nonhuman, Assay Type: Sister-chromatid exchange (SCE) in vitro, Assay Code: SC2+D, Dose Response: With dose response, Evaluation Type: Evaluation A (Pre-1980)
  mutagenic call: active; positive

## CON(C)C(=O)Nc1ccc(Br)cc1
Species/Cell Type: Hordeum vulgare (barley), Assay Type: Chromosome aberrations, Assay Code: HOC-, Evaluation Type: Evaluation A (Pre-1980)
  mutagenic call: inactive; negative

## CCCCC/C=C\C/C=C\C/C=C\C/C=C\CCCC(=O)O
Species/Cell Type: Human, Assay Type: Sister-chromatid exchange (SCE) in vitro, Assay Code: SC1T, Evaluation Type: Evaluation B (Post-1980)
  mutagenic call: no conclusion
Species/Cell Type: Mammalian polychromatic erythrocytes, Assay Type: Micronucleus test, chromosome aberrations, Assay Code: MNTT, Evaluation Type: Evaluation B (Post-1980)
  mutagenic call: no conclusion
Species/Cell Type: Nonhuman, Assay Type: Sister-chromatid exchange (SCE) in vitro, Assay Code: SC2T, Evaluation Type: Evaluation B (Post-1980)
  mutagenic call: no conclusion

## OCc1ccc(-c2ccccc2)cc1
Species/Cell Type: Chinese hamster ovary (CHO) cells, Assay Type: Forward gene mutation at the HPRT locus, Assay Code: CHOT, Evaluation Type: Evaluation B (Post-1980)
  mutagenic call: no conclusion
Species/Cell Type: Mammalian polychromatic erythrocytes, Assay Type: Micronucleus test, chromosome aberrations, Assay Code: MNT+U, Dose Response: Unconfirmed positive response, Evaluation Type: Evaluation B (Post-1980)
  mutagenic call: active; positive

Reference: PubChem BioAssay AID1259408 (Genetic Toxicology Data Bank (GENE-TOX), 2018)
